“Also recorded” adds a separate entry of the source. Residues, ends and D or L forms follow the SMILES beside them. No end group written: not given here. *: point of attachment. Hexanoyl(6-Ph) = O=C(CCCCCc1ccccc1)*
Key:
[1] = system: virgin females of Heliothis virescens; assay: Pheromonotropic assay (injection); assay type: in vivo; details: 0.06-200 pmol, 60 min after injection, FIG. 5
Description: Pupae of H. virescens were obtained from a laboratory colony maintained at the Insect Attractants, Behavior and Basic Biology Research Laboratory, USDA-ARS, in Gainesville, Fla. The pupae were separated by sex and the males were discarded. After eclosion, the females were held in 4-1 cages and provided with cotton wicks soaked with 5% sucrose solution. The insects were held at 25°±2° C, 65±3% relative humidity with a 12:12 (L:D) photoperiod. Virgin females were used for bioassays 2 and 3 days after eclosion during the 7th-8th hour of the photophase when endogenous levels of pheromone are very low (Abernathy, 1995, Regulation of sex pheromone production and oviposition in virgin females of noctuid moths, doctoral dissertation, University of Florida, Gainesville, Fla., pp. 1-107).
Pheromone biosynthesis neuropeptide from H. zea (Hez--PBAN) and the carboranyl pseudopeptide Cbe--Thr--Pro--Arg--Leu--NH2 were dissolved in physiological saline (Christensen et al., 1991, Proc. Natl. Acad. Sci. USA, 88:4971-4975). Female H. virescens insects were injected through the side of the third abdominal segment using a 26-ga needle with 20 μl of the above solutions. Each female received a dose of 0.01, 0.03, 0.1, 0.3, 1, 3, 10, 30, 100 or 300 pmol. After 1 h of incubation, the terminal abdominal segments, which contain the pheromone gland, were excised and placed in 10 μl of hexane containing 10 ng each of internal standards (octadecane and nonadecane) used for quantitation and calculation of relative retention indices. The pheromone gland extracts were analyzed for the amount of (Z)-11-hexadecenal (Z11-16:AL), the major sex pheromone component of H. virescens (Klun et al., 1980, J. Chem. Ecol., 6:165-175) by capillary gas chromatography. Hewlett-Packard 5890 gas chromatographs were equipped with splitless injectors, flame ionization detectors, and 30 m×0.25 mm (i.d.) fused silica "SPB 10" (polar) or "SPB1" (apolar) columns (Supelco). Conditions of chromatography were as follows: initial temperature=60° C.; injector operated in the splitless mode for 0.5 min; oven temperature increased by 30° C./min after 1 min; final temperature=190° C. ("SPB10") or 200° C. ("SPB1"); helium carrier gas at a linear flow velocity of 18 cm/s. A Nelson Analytical 3000° acquisition system (Cupertino, Calif.) was used to collect and analyze the data (Teal et al., 1989, Proc. Natl. Acad. Sci. USA, 86:2488-2492).
After the dose response of Hez--PBAN was completed, the […] dose was chosen to use for comparison with the carboranyl pseudopeptide assayed here. Insects were also injected with saline alone as a control. The pseudopeptide was prepared by dilution with saline as described above. Based on the dose-response for the activity of Hez--PBAN, […] were chosen to assess the pheromonotropic activity of the carboranyl pseudopeptide. Females were injected with 20 μl containing 0.01, 0.03, 0.1, 0.3, 1, 3, 10, 30, 100, or 300 pmol. Each bioassay consisted of one dose of several different peptides along with saline and Hez--PBAN controls. The amount of pheromone present in extracts of the pheromone glands of females from each group was compared with that produced by females injected with 5 pmol of Hez--PBAN during that particular bioassay. After all the bioassays were completed, the amount of pheromone produced by each insect was calculated as a percentage of the amount of pheromone produced by females treated with Hez--PBAN. Data were analyzed using one-way ANOVA and t-test with "STATVIEW" software. Variability was reported as SEM.
The pheromonotropic activity of Hez--PBAN, Lom--MT--II and [6--Pha--Ala^0 ]Lom--MT--II was first determined by a series of injection bioassays. Peptides were dissolved in physiological saline (Christensen et al., ibid) and diluted to concentrations of 0.003, 0.01, 0.03, 0.1, 0.3, 1.0, 3.0 and 10.0 pmol/μl. Insects were injected through the side of the 3rd abdominal segment using a 26 ga. needle with 20 μl of the above solutions. […]

[2] = system: virgin females of Heliothis virescens; assay: Pheromonotropic assay (topical application); assay type: in vivo; details: for pheromone production, topical 500 pmol/female in 80% acetonitrile: 80% acetonitrile in water; for pheromone production, topical 500 pmol/female in 80% acetonitrile / pheromone production, topical 500 pmol/female in DMSO / pheromone production, topical 500 pmol/female in water: FIG. 7; for pheromone production after topical application in DMSO: descaled cuticle
Description: The amphiphilic carboranyl analog Cbe--Thr--Pro--Arg--Leu--NH2 was dissolved in water and solutions at concentrations of 5, 10, 25, 60, and 200 pmol/μl were prepared. The cuticular scales along the lateral side of the abdomen were removed with a 1 ml plastic pipet tip attached to house vacuum with a rubber hose. A low vacuum was applied to the apparatus and the pipet tip was gently passed over the cuticle until the scales were drawn by suction. After the scales were removed, 1 μl of peptide solution was applied to the surface of the cuticle and smoothed evenly over the prepared surface. […]
Pupae of Heliothis virescens were obtained from a laboratory colony maintained at the Insect Attractants Behavior and Basic Biology Research Laboratory, USDA-ARS, Gainesville, Fla. The pupae were separated by sex and the females were held in 4-1 cages. Cages were inspected daily for newly eclosed adults which were transferred to new cages and provided with cotton wicks soaked with a 5% sucrose solution. The insects were held at 25°[…] C. and 65%±3% relative humidity with a 12:12 (L:D) photoperiod. Virgin females were used for bioassays 2 and 3 days after eclosion during the 7th-8th hour of the photophase when little or no pheromone is present in the gland (Teal et al., 1993, Can. Entomol., 153:355-366). The cuticular scales were removed from the lateral side of the abdomen using a plastic pipet tip attached to house vacuum using a rubber hose. A low vacuum was applied and the pipet tip was passed gently over the cuticle until the scales were drawn off by suction. Insects were returned to the incubator for 24 h after the scales were removed for most experiments. However, insects were not given a recovery period in studies in which peptides were applied in DMSO (see below).
In initial studies we used dimethyl sulfoxide (DMSO) as a carrier to deliver Hez--PBAN or [6--Pha--Ala^0 ]Lom--MT--II for topical applications. […] We also assessed different carrier solvents for their ability to deliver these two peptides. Peptides were dissolved at a concentration of 500 pmol/μl in: DMSO, water, or 80% acetonitrile:20% water. Solutions were applied to the descaled abdomen in 1 μl of solvent as above. The insects were allowed to incubate for 1 h prior to excision and extraction of the pheromone gland. Extracts were analyzed for the amount of pheromone as above.
The use of water as a carrier for [6--Pha--Ala^0 ]Lom--MT--II was also assessed in dose response and temporal activity studies. For dose response studies [6--Pha--Ala^0 ]Lom--MT--II was dissolved in water at concentrations of 5, 10, 25, 50, 75, 100, 250, 500, 750 and 1000 pmol/μl. Insects were incubated for 60 min after application of 1 μl of solution to the descaled abdomen. In temporal activity studies a 100 pmol/μl dose was selected. For these experiments insects were incubated for periods of 15, 30, 60, 120, or 180 min after application of 1 μl of solution to the descaled abdomen. The ability of the parent peptide, Lom--MT--II, to stimulate pheromone production when applied topically in water was assessed by applying doses of 50, 100, 250 and 500 pmol to the abdomen. Control treatments for this experiment included insects treated with only water and females treated by topical application of 100 pmol of [6--Pha--Ala^0 ]Lom--MT--II. After incubation the sex pheromone glands were excised, extracted and analyzed for the amount of pheromone.

[3] = system: isolated cockroach (Leucophaea maderae) hindgut; details: values printed with reference numbers; cited from earlier work
[4] = system: virgin females of Heliothis virescens; details: H. virescens, printed with reference number; cited from earlier work
[5] = system: virgin females of Heliothis virescens; details: 100 pmole dose, cited from earlier work
[6] = cited from earlier work
[7] = system: isolated cockroach (Leucophaea maderae) hindgut; assay: Cockroach myotropic bioassay (isolated hindgut); assay type: cell-based; details: isolated hindgut, FIG. 2; listed as LPK
Description: Leucophaea maderae cockroaches were taken from stock colonies maintained at 27° C. and fed dry dog food ad lib. Cockroach hindguts, free of central nervous system (CNS) tissue, were dissected, immersed in saline, and prepared for recording of myogenic activity as previously described (Holman et al., 1991, ibid). Threshold concentrations were determined for each analogue by adding a known quantity of peptide (dissolved in 0.5 ml bioassay saline) to the bioassay chamber containing the hindgut and observing the response on a Gould 2200S oscillograph recorder. The quantity of the peptide analogues was calculated from the values obtained for Phe and/or Leu in the amino acid analysis. The threshold concentration was defined as the minimum concentration of peptide in the chamber required to evoke an observable change in the frequency (50%) or amplitude of contractions (5%) within 1 min and sustained for 3 min. Threshold concentrations were obtained from five cockroach hindguts on 5 consecutive days for each peptide. Quantitative data for dose-response plots were obtained as previously described (Holman et al., 1991, ibid).

[8] = system: corn earworm moth H. zea; details: cited from earlier work
[9] = aqueous solution, 15 min to 3 hr

For `CC(C)C[C@H](NC(=O)[C@H](CCCNC(=N)N)NC(=O)[C@@H]1CCCN1C(=O)[C@@H](NC(=O)[C@H](Cc1ccccc1)NC(=O)[C@H](CC(=O)O)NC(=O)CNC(=O)[C@H](CCC(=O)O)NC(=O)[C@H](C)NC(=O)CCCCCc1ccccc1)[C@@H](C)O)C(N)=O` [[6--Pha--Ala^0]Lom--MT--II] ({Hexanoyl(6-Ph)}-AEGDFTPRL-NH2), the “pheromonotropic activity of injected peptide, compared” value [1] was “reduced the activity, compared to Lom--MT--II, at doses up to 6 pmol; also recorded: equivalent to Hez--PBAN at all other doses”, the “pheromonotropic activity of injected peptide, compared” value ([1]; listed as [6--Pha--Ala^0]Lom--MT--II) was “pheromonotropic activity equivalent to Hez--PBAN” and the “time after application at which gland extracts contained significant amounts of pheromone” value ([2]; 100 pmol in water, FIG. 9) was no more than 15 min. The “time of maximal activity after application” value ([2]; 100 pmol in water, FIG. 9) was 60 min, the “pheromone production, topical 500 pmol/female in 80% acetonitrile” value ([2]; 60 min) was “significant amounts of pheromone; also recorded: induced the production of pheromone” and the “response to topical application of 5 and 10 pmol doses in DMSO” value ([2]; DMSO carrier, 60 min, FIG. 6) was “produced pheromone”. For the same compound, the “amount of pheromone at 100 to 1000 pmol/female, topical in DMSO” value ([2]; DMSO carrier, FIG. 6) was “equivalent amounts of pheromone”, the “pheromone production after topical application in DMSO” value ([2]; DMSO carrier) was “produced pheromone; also recorded: effective in stimulating pheromone production” and the “pheromone production, topical 500 pmol/female in DMSO” value ([2]; 60 min) was “equivalent amounts of pheromone”. For the same compound, the “concentration giving maximal pheromone stimulation, topical application” value ([2]; topically applied) was 100 picomoles/insect, the “dose up to which activity increased in a linear fashion (100-1000 pmol not different)” value ([2]; water carrier, 60 min, FIG. 8) was 100 pmol and the “doses stimulating significantly more pheromone than just water, topical in water” value ([2]; water carrier, 60 min, FIG. 8) was no less than 10 pmol. For the same compound, the “pheromone production, topical 500 pmol/female in water” value ([2]; 60 min) was “significant amounts of pheromone”.

With “LSDDMPATPADQEMYRQDPEQIDSRTKYFSPRL-NH2 [HezPBAN, reference compound]” the “pheromone versus water-only controls, time course, topical in water” value ([2]; 100 pmol in water, 15-180 min, FIG. 9) was “no different from controls at any time interval; also recorded: did not contain more pheromone than was present in extracts obtained from insects treated with water only”, the “pheromone production, topical 500 pmol/female in 80% acetonitrile” value ([2]; 60 min) was “no significant activity” and the “amount required to stimulate significant pheromone production relative to [6--Pha--Ala^0 ]Lom--MT--II” value ([2]; DMSO carrier) was “ten fold more”. For the same compound, the “dose from which pheromone is produced, topical in DMSO” value ([2]; DMSO carrier, 60 min, FIG. 6) was 50 pmol/female, the “amount of pheromone at 100 to 1000 pmol/female, topical in DMSO” value ([2]; DMSO carrier, FIG. 6) was “equivalent amounts of pheromone” and the “pheromone production after topical application in DMSO” value ([2]; DMSO carrier) was “produced pheromone; also recorded: effective in stimulating pheromone production”. The “pheromone production, topical 500 pmol/female in DMSO” value ([2]; 60 min) was “equivalent amounts of pheromone”, the “pheromone production when applied to the surface of the cuticle in water” value ([2]; water carrier) was “failed to stimulate production of significant amounts of pheromone” and the “pheromone production, topical 500 pmol/female in water” value ([2]; 60 min) was “no significant activity”. The “Threshold Concentration, myostimulation of the isolated cockroach hindgut” value [3] was 2,600 pM, the “ED50, pheromone production via injection” value [4] was 1.0 pmol and the “Maximal Response via injection (dose)” value [4] was 5.0 pmol. For the same compound, the “pheromone production over control group after topical aqueous application” value ([5]; 15 min, 1 hr, 2 hr, 3 hr following treatment, listed as PBAN) was “does not lead to production of statistically different levels of pheromone production”, the “ED50, pheromone production via topical application” value [5, 9] was “Inactive” and the “Maximal Response via topical application” value [5, 9] was “Inactive”. The “share of orally administered peptide entering the hemolymph through the gut wall” value ([6]; oral administration) was “approximately 5%”.

For “pQTSPhe--Thr--Pro--Arg--Leu--NH2 (pQTS-FTPRL-NH2) [octapeptide leucopyrokinin of the cockroach Leucophaea maderae, reference compound]”, the “reversibility of myostimulatory response by saline rinse” value [7] is listed as “immediately reversed by a saline rinse; also recorded: immediately vanished following a saline rinse; also recorded: subsides immediately following a saline rinse”, the “Threshold Concentration, myostimulation of the isolated cockroach hindgut” value [3] is listed as 650 pM and the “Maximal Response via injection (dose)” value ([8]; data from H. zea) is listed as 70 pmol. The “ED50, pheromone production via injection” value ([8]; data from the related corn earworm moth H. zea) was 5 pmol.

For proctolin, the “fate of ingested peptide in the gut” value ([6]; in vivo) is given as “rendered inactive in the gut”.
